Test results: patent publication US12036223B2, “Small molecule trail gene induction by normal and tumor cells as an anticancer therapy” (The Penn State Research Foundation, priority 2011, dated 2024)
Like-named read-outs stand apart in the source and are kept apart here.

How the values were obtained:
[1] = system: SF767 intracranial tumors; assay: Overall survival of mice harboring SF767 intracranial tumors; type: in vivo, athymic nude mice; conditions: for Median Survival: TIC10 25 mg/kg oral, bevacizumab 10 mg/kg i.v.
Procedure: For intracranial xenografts, anesthetized athymic nude mice were implanted with 2×10^5 SF767 cells in a 25 μL suspension of serum- and antibiotic-free RPMI. The site of injection was a burr hole created 1 mm lateral to the midline of the skull and 1 mm anterior to the coronal suture. The injection was gradually administered over 5 minutes with a Hamilton syringe and the burr hole was sealed using bone wax. Tumor take was assessed by bioluminescent imaging 2 weeks following implantation. Bioluminescent imaging of tumors was carried out on an IVIS imaging system as described in Wang et al., 2003, PNAS 100:15095-15100.

[2] = TRAIL protein / recombinant TRAIL, cited from earlier work
[3] = system: MDA-MB-231 human breast cancer xenografts; assay: MDA-MB-231 subcutaneous xenograft; conditions: single doses, TIC10 i.p., TRAIL i.v.
Procedure: (§4) For subcutaneous xenografts, 4-6 week old female, athymic nu/nu mice (Charles River Laboratories) were inoculated with 1×10^6 cells (2.5×10^6 for T98G) of indicated cell lines in each rear flank as a 200 μL suspension of 1:1 Matrigel (BD):PBS. All intraperitoneal and intravenous injections were given at a total volume of 200 μL. […] Tumors were monitored using digital calipers at indicated time points. All subcutaneous tumors were allowed to establish for 1-4 weeks post-injection until reaching a volume of ˜125 mm^3 before treatment initiation. Relief of tumor burden was monitored for 3 weeks following disappearance of the tumor and confirmed by visual inspection after euthanasia.
(§5) Error bars indicate standard deviation (s.d.) of replicates. *P<0.05 and **P<0.005 between the indicated condition and control unless otherwise indicated.

[4] = system: DLD-1 xenografts; assay: DLD-1 subcutaneous xenograft; conditions: single dose, 1 week post-treatment, TIC10 i.p., TRAIL i.v.
Procedure: as §4

[5] = system: Eμ-Myc transgenic mice that spontaneously develop lymphoma; conditions: weekly oral TIC10 25 mg/kg during weeks 9-12 of age
Procedure: Near-infrared imaging of mice was carried out on a Pearl Impulse imaging system (LI-COR) following tail-vein injection of AngioSense® 680 (VisEn Medical, Woburn, MA) according to the manufacturer's protocols. 6 week old Eμ-myc mice were obtained from The Jackson Laboratory (B6.Cg-Tg(IghMyc)22Bri/J).
P value determined by log-rank test. For relative tumor volume plots, tumor size is expressed relative to the tumor size on day 0, which is defined as the day of treatment initiation.

[6] = system: GBM cell lines; assay: Cell viability assays of GBM cell lines; type: cell-based, human; conditions: 72 hr post-treatment, p53-independent
Procedure: For all flow cytometry analyses, floating and adherent cells were analyzed on a Coulter-Beckman Elite Epics cytometer. […] Cells were gated on forward and side scatter to eliminate debris and dead cells from the analysis. […] Cell viability assays were carried out in 96-well black-walled clear-bottom plates using CellTiter-Glo® (Promega) according to the manufacturer's protocols. Imaging and quantification of these assays were performed on an IVIS imaging system (Xenogen).

[7] = system: TRAIL; conditions: TIC10 100 mg/kg i.v.
Procedure: (§1) Tissue analyses. […] Serum was then removed following centrifugation for 5 minutes.

[8] = system: HCT116 cells; assay: Cell viability in HCT116 cells after 1 hr pre-incubation of agent at indicated temperatures; type: cell-based, human; conditions: TIC10 5 μM, 1 hr pre-incubation at indicated temperatures, 72 hr
[9] = system: TRAIL mRNA in HCT116 p53−/− cells; assay: RT-qPCR analysis of TRAIL mRNA levels; type: cell-based, human; conditions: 48 hr
Procedure: Total RNA was extracted using RNeasy Minikit (Qiagen) by following the manufacturer's instructions. cDNA was generated using SuperScript II (Invitrogen) with 1 μg of RNA and oligodT. […] PCR amplification was performed with the Applied Biosystems 7900HT Fast Real-time Detection System. Samples were standardized to 10 ng/μl and twenty ng of cDNA per sample was then utilized as a template for real-time PCR using a SYBR Green Master Mix (Qiagen Corp, USA). Samples were normalized to GAPDH used under identical conditions. Quantitation used the 2ΔΔCt method of crossing thresholds described in Livak et al., 2001, Methods. […] Reactions were performed in 384 well optical plates in a 7900HT instrument (Applied Biosystems), with 10 ul reaction volumes. Data analysis used the ABI PRISM 7900 Sequence Detection System 2.2 software. To exclude the possibility of genomic DNA contamination, control PCR reactions with no cDNA template and No-RT control samples were also performed for each gene-specific primer set. Quadruplicates of each PCR reaction were performed and the resultant data was averaged.

[10] = system: HCT116 p53−/− xenograft; assay: HCT116 p53−/− subcutaneous xenograft; type: in vivo, athymic nu/nu mice; conditions: 3 doses on day 0, 3 and 6, TIC10 i.p.
Procedure: as §4, §5

[11] = system: HCT116 xenograft; assay: HCT116 xenograft, single oral dose titration; type: in vivo, athymic nu/nu mice; conditions: 25 mg/kg
Procedure: as §4, §5

[12] = system: surface TRAIL in a panel of cancer cells; assay: Surface TRAIL by flow cytometry in cancer cell lines; type: cell-based, human; conditions: 72 hr, p53-independent
[13] = system: pAkt and pERK in HCT116 p53−/− cells; assay: Western blot analysis of pAkt and pERK; type: cell-based, human; conditions: TIC10 2.5, 5, 10 μM, 72 hr, dose-dependent
Procedure: Western blot analysis was conducted as described in Wang, W. et al., PNAS 103, 11003-11008, 2006, using NuPAGE 4-12% Bis-Tris and visualized using Supersignal West Femto (Thermo Scientific) and X-ray film. Nuclear and cytoplasmic extracts were prepared using a cytoplasmic lysis buffer (10 mM HEPES, 10 mM KCl, and 2 mM MgCl2, 1 mM DTT) followed by a nuclear lysis buffer (20 mM HEPES, 420 mM NaCl, 1.5 mM MgCl2, 250 μM EDTA, 25% glycerol). For all lysis buffers, fresh protease inhibitor (Roche) and 1 mM sodium orthovanadate was added immediately prior to use.
TIC10-induced changes in regulators of Foxo3a such as IKK, Akt, and ERK were determined.
FIG. 61 is a graph showing time course of protein expression levels of TIC10-induced effects determined by densitometry of Western blots from replicate experiments as in FIG. 60 (n=3). Data is express relative to the control sample for each time point and normalized to Ran. TRAIL was quantified by flow cytometry as a parallel experiment (n=3).

[14] = Blood-brain barrier crossing; conditions: in vivo
[15] = system: intracecal HCT116 p53−/− tumors; conditions: multi-dose regimen, once a week
Procedure: Intracecal implantation was performed as described in Cespedes, M. V., et al., Am J Pathol, 2007, 170(3): p. 1077-1085.
FIG. 37 is a graph showing percent of cohorts with implanted with intracecal HCT116 p53^−/− tumors with evident tumors at the primary and distal sites at endpoint (n=5).
FIG. 38 is a graph showing body weight of mice at endpoint. Error bars indicate s.d. of replicates.

[16] = system: subcutaneous T98G xenografts; assay: T98G subcutaneous xenograft; type: in vivo, athymic nu/nu mice; conditions: single oral dose, 30 mg/kg
Procedure: TIC10 was tested in preclinical models of GBM as a monoagent and in combination with bevacizumab.

[17] = system: SW480 xenograft; assay: SW480 subcutaneous xenograft; type: in vivo, athymic nu/nu mice; conditions: single dose 30 mg/kg, intraperitoneal or oral delivery
Procedure: as §4

[18] = system: TRAIL
Procedure: as §1
ELISA for TRAIL was carried out using the Quantikine® TRAIL/TNFSF10 kit according to the manufacturer's protocol (DTRL00, R&D systems, Minneapolis, MN). […] Absorbances were measured with a DTX 880 plate reader (Beckman Coulter).
(§2) Error bars indicate s.d. of replicates.

[19] = system: HFF cells; assay: Colony formation parallel experiment, HFF cells
Procedure: Indicated cell lines were plated at 500 cells per well and treated the following day in fresh complete media after adherence. At 3 days post-treatment, the media was replaced with drug-free media and cells were propagated for 10 days with fresh media given once every 3 days. At the end of the 10 day period, cells were washed in PBS, fixed with methanol, and stained with Coomassie blue, rinsed, and dried for quantification.
Error bars indicate standard deviation (s.d.) of replicates. […] Error bars indicate standard deviation (s.d.) of replicates.

[20] = system: HFF cells; conditions: 5 μM, 72 hr
Procedure: (§3) For all flow cytometry analyses, floating and adherent cells were analyzed on a Coulter-Beckman Elite Epics cytometer. For surface TRAIL experiments, adherent cells were harvested by brief trypsinization, fixed in 4% paraformaldehyde in PBS for 20 min, incubated with an anti-TRAIL antibody for 2 hr (Abeam), washed and incubated with anti-rabbit Alexafluor 488 (Invitrogen) for 30 min, and analyzed. Cells were gated on forward and side scatter to eliminate debris and dead cells from the analysis. Surface TRAIL data is expressed as median fluorescence intensity relative to that of control samples unless indicated as otherwise. For Sub-G1 and cell cycle profile experiments, all cells were pelleted and ethanol fixed followed by staining with propidium iodide (Sigma) in the presence of RNAse. Cell viability assays were carried out in 96-well black-walled clear-bottom plates using CellTiter-Glo® (Promega) according to the manufacturer's protocols. Imaging and quantification of these assays were performed on an IVIS imaging system (Xenogen).

[21] = system: freshly isolated GBM cells; conditions: temozolomide-resistant, previously irradiated, 72 hr
Procedure: as §3

[22] = Pharmacokinetic analysis of TIC10 in plasma
Procedure: HPLC analysis was performed by absorbance detection at 239 nm on an Agilent 1200 series system (Agilent, Santa Clara, CA) using an Eclipse XDB-C18 column (Agilent) and a 100 μL injection loop. Isocratic elution at 1 mL/minute was carried out in 0.1% trifluoroacetic acid in dH2O. An acetonitrile (ACN) gradient was carried out for elution as 15-20% ACN at 0-5 minutes, 20-23% for 5-12 minutes, 25% for 12-18 minutes. […] For all plasma samples, blood was obtained by terminal cardiac puncture of the left ventricle and collected into EDTA tubes (BD). Samples were centrifuged at 500 g for 10 minutes. Plasma was deproteinated by the adding 30 μL of perchloric acid to 100 μL of samples, vortexed for 15 seconds, centrifuged for 2 minutes, and the supernatant was immediately injected into the HPLC. AUC was normalized to an internal serum peak with a retention time of 8.1 minutes. AUC data versus time was fit with a two-compartment open model with first order elimination from central compartment using the equation AUC=Ae^−αt+Be^−βt where t=time and A and B are the extrapolated concentrations at the initiation of the two phases (distribution and elimination). Half-lives calculated as t1/2α=0.693/α and t1/2β=0.693/β. Other equations used for calculation include CL=dose/AUC0-∞ and Vd=dose/(AUC0-∞Xβ).
Error bars represent standard error mean of replicates.

[23] = system: human TRAIL gene promoter in HCT116 Bax−/− cells; conditions: first 504 base pairs of the TRAIL promoter
Procedure: Bioluminescent high-throughput screening using the NCI diversity set II was carried out in HCT116 Bax^−/− cells that were stably cotransfected to express a firefly luciferase construct under transcriptional control of the first 504 base pairs of the TRAIL promoter upstream of the start of transcription of the human TRAIL gene. Compounds were tested at a working concentration of 20 nM, 200 nM, 500 nM, and 1 μM with bioluminescent assessment of transcriptional activity at 12, 24, 36, and 48 hours post-treatment.

[24] = system: HCT116 p53−/− cells; assay: Sub-G1 / cell cycle profile, HCT116 p53−/− cells; type: cell-based, human; conditions: 5 μM, 72 hr
Procedure: as §3

[25] = system: freshly resected colon tumor cells from a human patient; conditions: TIC10 0.6-20 μM
Procedure: as §3, §2

[26] = Serum chemistry of C57/B6 mice treated weekly for 4 weeks
Procedure: For CBC/differential and serum chemistry assays, 1 mL of blood was harvested from anesthetized mice by terminal cardiac puncture of the left ventricle. For serum chemistry, 500 μL, was placed into a microfuge tube and allowed to clot for 30 minutes at room temperature followed by centrifugation. Serum was removed, centrifuged again to remove any further clots, and serum was submitted for analysis. For CBC/differentials, 500 μL of blood was collected into EDTA tubes and analyzed.

[27] = system: cancer cell lines; assay: Colony formation assays, cancer cell lines; type: cell-based, human; conditions: 10 μM, 72 hr
[28] = Body weight and liver histology of treated mice; conditions: TIC10 100 mg/kg i.p. single dose; 25 mg/kg oral weekly for 4 weeks
Procedure: Tissue analyses. Mice were humanely sacrificed at indicated time points and excised normal tissue or tumors were fixed in 4% paraformaldehyde/PBS overnight at 4° C. If plasma samples were desired, 500 μL of blood was collected by terminal cardiac puncture under anesthesia in EDTA-Vacutainer tubes (BD). Serum samples were collected in a similar fashion but in microcentrifuge tubes followed by a 30 minute incubation at room temperature to allow for clotting. Serum was then removed following centrifugation for 5 minutes. Paraffin-embedded blocks, serial section slides, and hematoxylin and eosin staining were prepared according to standard procedures. TUNEL staining was performed using the ApopTag® Peroxidase In Situ Apoptosis Detection Kit (Millipore). For IHC analysis, slides were dewaxed in xylene and hydrated in a decreasing gradient of ethanol. Antigen retrieval was carried out by boiling in 10 mM citric acid (pH 6.0) for 6 min. Samples were blocked with streptavidin and biotin blocking solutions and goat serum (Vector Laboratories). Primary antibodies were incubated overnight at 4° C. in a humidity chamber. Incubation with biotinylated secondary antibody and DAB deposition was carried out according the manufacturer's protocol (Vector Laboratories DAB Substrate Kit for Peroxidase). […] Images were recorded on an Axioskop microscope using QCapture software (QImaging).

[29] = single dose at 2 weeks post-implantation
[30] = tumor-free mice, TIC10 100 mg/kg i.v.
[31] = 25 mg/kg intravenous, plasma, two-compartment model
[32] = female, C57/B6, mouse, in vivo, iv, 25 mg/kg
[33] = serum, TIC10 25 mg/kg oral weekly for 4 weeks

Molecule: bevacizumab [reference compound]
- Median Survival [1, 29]: 70 days

Molecule: TRAIL: Purified, recombinant TRAIL (TNF-related apoptosis-inducing ligand; Apo2L)
- serum half-life [2]: 20 to 30 min
- serum half-life ([2]; listed as recombinant TRAIL): ~30 min
- effect on tumor [3]: progressed
- effect on tumor [4]: progressed

Molecule: Cc1ccccc1CN1C(=O)C2=C(CCN(Cc3ccccc3)C2)N2CCN=C12 [TIC10]
- prolongation of survival [5]: 4 weeks
- GI50 [6]: low micromolar range
- TRAIL protein in normal tissues (IHC) [7]: upregulated at the protein level in the brain, kidney, and spleen
- toxicity in normal tissues by histology and TUNEL staining [7]: without apparent toxicity
- thermal stability of cytotoxic activity [8]: thermally stable
- TRAIL mRNA levels [9]: dose-dependent increase
- effect on tumor [10]: tumor regression
- effect on tumor [11]: sustained anti-tumor efficacy
- TRAIL protein localized to the cell surface [12]: dose-dependent increase
- pAkt and pERK levels [13]: abolished
- blood-brain barrier crossing [14]: crosses the blood-brain barrier
- tolerability / body weight at endpoint [15]: well tolerated
- effect on tumor [16]: sustained regression
- Median Survival [1, 29]: 74 days
- change in overall survival ([1]; single dose, intracranial xenograft of human GBM): doubled
- ΔMedian Survival ([1]; versus control cohort, single dose at 2 weeks post-implantation): 46 days
- effect on tumor [17]: sustained regression
- duration of sustained serum levels of secreted TRAIL ([18]; after a single dose of TIC10): 3 to 4 days
- duration of elevated serum levels of TRAIL [18, 30]: greater than 72 hours
- time at which serum TRAIL induced by TIC10 was detected following administration [18, 30]: 2 h
- effect on normal fibroblasts in colony formation experiment [19]: sparing normal fibroblasts
- effect on tumor [3]: regression
- effect on tumor [4]: tumor stasis
- cell cycle profile of normal fibroblasts [20]: without altering the cell cycle profiles
- cytotoxicity in freshly isolated GBM cells [21]: cytotoxic effects
- t1/2α ([22]; 25 mg/kg intravenous, plasma): 2.82 min
- t1/2β ([22]; 25 mg/kg intravenous, plasma): 385 min
- α [22, 31]: 14.9 h⁻¹
- β [22, 31]: 0.108 h⁻¹
- AUC(0-inf) [22, 32]: 63.9 µM·h
- Cmax [22, 32]: 44.2 µM
- Tmax [22, 32]: 1.2 min
- Vd [22, 32]: 9.39 L/kg
- clearance [22, 32]: 16.8 mL/min/kg
- TRAIL promoter luciferase reporter activity [23]: induced TRAIL promoter-dependent transcriptional activity
- sub-G1 DNA content [24]: induced sub-G1 DNA content
- cytotoxicity in primary colon cancer cells [25]: potent cytotoxic effects
- changes in a panel of serum chemistry markers ([26]; oral TIC10 25 mg/kg weekly for 4 weeks, immuno-competent mice): did not cause any changes
- Albumin [26, 33]: 2.9 g/dL
- Alkaline phosphate [26, 33]: 112 ± 12 U/L
- Blood urea nitrogen [26, 33]: 33.75 ± 7.3 mg/dL
- Chloride [26, 33]: 104 mM
- Creatinine [26, 33]: 0.15 ± .06 mg/dL
- Lactate dehyrogenase [26, 33]: 287.5 ± 125 U/L
- Potassium [26, 33]: 7.325 ± 3.2 mM
- Sodium [26, 33]: 154.5 ± 5.2 mM
- Total Protein [26, 33]: 4.97 ± .61 g/dL
- Total bilirubin [26, 33]: 2.725 ± 2.4 mg/dL
- clonogenic survival [27]: decreased the clonogenic survival
- effects on body weight or liver histology [28]: no adverse effects on body weight or liver histology
